The text below walks through data of PubChem BioAssay (NCI).

Each structure is given as a SMILES string.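 Assay format: 96-well plates, 48-hour exposure. TGI: concentration producing complete growth inhibition.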 *1 amine or outer side, *2 acyl side, *3 side chain or, on linkers, in order; H or OH if unused. Where a SMILES comes first, the peptide text is derived from it. [ ]: non-standard residue; d: D form. The star is where a group is joined. X31 = CC(=O)N(C)SCC(N[*:1])C(=O)[*:2]; Cbz = O=C(OCc1ccccc1)*; Bn = c1ccc(C*)cc1; For = O=C*

Test in all cases: NCI tumour cell line growth inhibition, 48 h
Assay [1] deals with SN12C renal.
The subject of assay [2] is OVCAR-3 ovarian.
Assay [3] concerns SW-620 colon.
In assay [4] the test system is 786-0 renal.
Assay [5] concerns TK-10 renal.
Assay [6] deals with MALME-3M melanoma.
The subject of assay [7] is MDA-MB-231 breast.
The test system of assay [8] is HCT-15 colon.
In assay [9] the test system is NCI/ADR-RES ovarian.
Assay [10] has as its system NCI-H522 lung.
Assay [11] deals with IGROV1 ovarian.
For assay [12], the system named is A549 NSCLC.
Assay [13] deals with NCI-H23 lung.
The test system of assay [14] is OVCAR-4 ovarian.
The subject of assay [15] is UACC-257 melanoma.
The subject of assay [16] is SR leukemia.
The subject of assay [17] is MDA-MB-435.
The test system of assay [18] is K-562 leukemia.
Assay [19] deals with HS 578T breast.

As for `CC(=O)N(C)SCC(NC(=O)C(Cc1ccccc1)NC(=O)OCc1ccccc1)C(=O)NC(Cc1ccccc1)C(=O)NC(Cc1cn(C=O)c2ccccc12)C(=O)NC(CCCCNC(=O)OCc1ccccc1)C(=O)NC(C(=O)NC(CSN(C)C(C)=O)C(=O)NC(C(N)=O)C(C)OCc1ccccc1)C(C)OCc1ccccc1` (stereo unspecified) (Cbz-F[X31]FW(For)K(Cbz)T(Bn)[X31]T(Bn)-NH2; configuration not given here), the TGI in assay [1] is more than 100 µM; in assay [2], more than 100 µM; in assay [3] it was more than 100 µM; in assay [4], more than 100 µM; in assay [5], 57.2 µM; in assay [6], more than 100 µM. In addition, the TGI in [7] was 30.5 µM; in assay [8], more than 100 µM; in assay [9] it was more than 100 µM; in assay [10], more than 100 µM; in assay [11], more than 100 µM; in [12], more than 100 µM. Besides, the TGI in [13], in [14], in assay [15], in assay [16], in [17] and in assay [18] was more than 100 µM in each case. Also, in assay [19], the TGI was more than 100 µM.
Take `Cn1c2ccccc2c2c(-c3ccccc3)cc3c(c21)C(=O)C=CC3=O`: the TGI in assay [1] turned out to be 5.76 µM; in assay [2] it was 4.03 µM; in assay [3] it was 2.21 µM; in [4], 2.99 µM; in assay [5] it was 3.4 µM; in assay [6], 4.17 µM. For the same compound, the TGI in [7] was 5.72 µM; in assay [8], 5.41 µM; in [9], more than 9.15 µM; in [10], 2.74 µM; in assay [11], 5.5 µM; in assay [12], more than 10 µM. Moreover, the TGI is 3.81 µM in [13]; 5.75 µM in assay [14]; 4.62 µM in assay [15]; 0.817 µM in [16]; 4.32 µM in assay [17]; more than 3.46 µM in assay [18]. In [19], this compound displayed a TGI of 9.62 µM.
For the compound `COC1=C(OC)C(=O)C(Cc2c(Cl)nc3sc(C)cn23)=C(C)C1=O`, the TGI in assay [1] amounted to 30.5 µM; in [2] it was 26.1 µM; in assay [3], 47.8 µM; in [4], 38.8 µM; in assay [5], 31.7 µM; in [6] it was 26.5 µM. In addition, the TGI in [7] was found to be 41.8 µM; in assay [8], 67.9 µM; in assay [9], 38.1 µM; in assay [10], 30.2 µM; in assay [11] it was 35.5 µM; in assay [12], 41.8 µM. Besides, the TGI in assay [13] was 42.6 µM; in assay [14], 20.6 µM; in assay [15], 22.8 µM; in [16], 51 µM; in assay [17], 35.3 µM; in assay [18] it was 45.5 µM. The TGI in [19] came to 66.4 µM.
For the compound `COC1(OC)c2no[n+]([O-])c2CCC1O` (stereo unspecified), the TGI in assay [1], in assay [2], in [3], in [4], in assay [5] and in [6] was more than 100 µM throughout. For the same compound, the TGI in [7], in assay [8], in assay [9], in [10], in [11] and in [12] was more than 100 µM in each case. The TGI in assay [13], in assay [14], in assay [15], in assay [16], in assay [17] and in assay [18] was more than 100 µM throughout. In assay [19], this compound yielded a TGI of more than 100 µM.
As to `Nc1ncnn2c(C3OC(CO)C(O)C3O)ccc12` (stereo unspecified), the TGI in assay [1] amounted to 2.7 µM; in [2], 0.52 µM; in assay [3] it was 35.1 µM; in assay [4], 0.807 µM; in assay [5], 0.682 µM; in assay [6], 0.285 µM. The TGI in [7] amounted to 1.11 µM; in assay [8] it was 0.771 µM; in [9], 2.27 µM; in [10] it was 1.97 µM; in assay [11] it was 0.562 µM; in assay [12], 3.14 µM. Further, the TGI in [13] was found to be 0.474 µM; in assay [14], 0.582 µM; in assay [15] it was 0.417 µM; in assay [16], 0.837 µM; in assay [17], 0.376 µM; in [18], 0.569 µM. Besides, the TGI in assay [19] is 0.275 µM.
`Cn1c2ccccc2n2c(N=O)c(-c3ccccc3)nc12`: the TGI in [1], in assay [2], in assay [3], in assay [4], in assay [5] and in assay [6] was more than 100 µM throughout. The TGI is more than 100 µM in [7]; more than 100 µM in assay [8]; more than 100 µM in assay [9]; more than 100 µM in [10]; more than 100 µM in assay [11]; 57.6 µM in assay [12]. The TGI in assay [13], in assay [14], in assay [15], in [16], in [17] and in assay [18] was more than 100 µM each time. For the same compound, in [19], the TGI was more than 100 µM.
Regarding `CCOC(CN(C)C(=O)Nc1cccc2ccccc12)OCC`, the TGI in assay [1], in [2], in [3], in [4], in [5] and in assay [6] was more than 10 µM throughout. Also, the TGI in assay [7], in [8], in [9], in [10], in assay [11] and in assay [12] was more than 10 µM each time. In addition, the TGI in [13], in assay [14], in assay [15], in [16], in assay [17] and in assay [18] was more than 10 µM throughout. The same compound registered a TGI in assay [19] of more than 10 µM.
For `O=C1/C(=C/c2cccc(F)c2)CCCc2ccccc21`, the TGI is 31.8 µM in assay [1]; 28.6 µM in assay [2]; 30.5 µM in assay [3]; 30.9 µM in [4]; 29.1 µM in assay [5]; 23.8 µM in assay [6]. In addition, the TGI in assay [7] came out at 32.5 µM; in assay [8], 29.3 µM; in assay [9], 33.1 µM; in [10] it was 25.5 µM; in assay [11] it was 24.6 µM; in assay [12] it was 38.2 µM. Also, the TGI was determined as 42.6 µM in assay [13]; 31.8 µM in assay [14]; 30.6 µM in [15]; 32.8 µM in assay [16]; 29.7 µM in [17]; 32.1 µM in assay [18]. The TGI in assay [19] stood at 28.5 µM.
As to `C=CCNC1=C2C[C@@H](C)C[C@@H](OC)[C@H](OC(=O)CCN)[C@H](C)/C=C(\C)[C@@H](OC(N)=O)[C@H](OC)/C=C\C=C(/C)C(=O)NC(=CC1=O)C2=O`, the TGI in assay [1] is 16.2 µM; in assay [2] it was 6.56 µM; in assay [3] it was more than 100 µM; in assay [4], 17 µM; in [5], 10.5 µM; in assay [6], 14.1 µM. For the same compound, the TGI in [7] was 17.7 µM; in assay [8], 23.7 µM; in assay [9], more than 100 µM; in assay [10] it was 20.2 µM; in [11], 19.6 µM; in assay [12], 18.5 µM. Besides, the TGI in [13] is 13 µM; in assay [14] it was 21.3 µM; in [15], 10.3 µM; in [16] it was more than 100 µM; in assay [17], 13.4 µM; in assay [18], more than 100 µM. This compound gave a TGI in assay [19] of 52.9 µM.
As to `[N-]=[N+]=Nc1ccccc1C(=O)N1C(=O)c2ccccc2C(=O)N(C(=O)c2ccccc2N=[N+]=[N-])c2ccccc21`, the TGI in assay [1], in assay [2], in assay [3], in [4], in assay [5] and in [6] was more than 100 µM throughout. The TGI in assay [7], in [8], in [9], in assay [10], in assay [11] and in assay [12] was more than 100 µM each time. Further, the TGI in assay [13], in assay [14], in assay [15], in assay [16], in assay [17] and in assay [18] was more than 100 µM in each case. The compound further gave a TGI in assay [19] of more than 100 µM.
Consider `O=C1/C(=C/c2cccc(Br)c2)CCc2ccccc21`, for which the TGI in [1] stood at 29.2 µM; in assay [2] it was 28.6 µM; in [3], 17.9 µM; in assay [4] it was 29.8 µM; in assay [5], 31 µM; in assay [6], 26 µM. Moreover, the TGI in assay [7] is 35.9 µM; in [8], 24.1 µM; in assay [9] it was 33.2 µM; in [10] it was 24.3 µM; in assay [11] it was 24.7 µM; in [12] it was 34.6 µM. The TGI is 32.6 µM in assay [13]; 26.7 µM in assay [14]; 28.6 µM in assay [15]; 18.4 µM in assay [16]; 25.4 µM in [17]; 29.9 µM in [18]. In assay [19], this compound returned a TGI of 24.8 µM.
`Cc1ccc2c(c1)[nH]c(=S)n2/C=C1\C(=O)Oc2ccccc2C1=O`: the TGI in assay [1], in assay [2], in [3], in assay [4], in assay [5] and in [6] was more than 100 µM each time. For the same compound, the TGI in assay [7], in assay [8], in [9], in [10], in assay [11] and in [12] was more than 100 µM in each case. Moreover, the TGI in assay [13], in assay [14], in assay [15], in assay [16], in [17] and in assay [18] was more than 100 µM throughout. This compound registered a TGI in assay [19] of more than 100 µM.
Regarding `CCOc1cc(NC(C)=O)ccc1C(=O)NN1C(=O)C(Cl)C1c1ccccc1` (stereo unspecified), the TGI stood at 36.5 µM in assay [1]; 34.2 µM in assay [2]; 59.6 µM in assay [3]; 28.1 µM in assay [4]; 31.2 µM in assay [5]; 25.2 µM in [6]. Besides, the TGI in [7] stood at 26.7 µM; in assay [8], 45.4 µM; in assay [9], 88.5 µM; in [10] it was 5.82 µM; in assay [11] it was 18 µM; in assay [12], 33.3 µM. Further, the TGI in assay [13] stood at 32.3 µM; in [14], 32.7 µM; in assay [15], 28 µM; in assay [16] it was 14.3 µM; in [17], 26 µM; in assay [18], 23.9 µM. The same compound displayed a TGI in [19] of 83.1 µM.
Take `COC(=O)/C=C(/C)n1nc2ccccc2n1`: the TGI in assay [1], in [2], in assay [3], in assay [4], in [5] and in assay [6] was more than 100 µM in each case. Moreover, the TGI in assay [7], in assay [8], in assay [9], in assay [10], in [11] and in [12] was more than 100 µM in each case. The TGI in [13], in [14], in assay [15], in assay [16], in assay [17] and in assay [18] was more than 100 µM throughout. Also, in assay [19], the TGI is more than 100 µM.
